Laboratory results taken from US7399638B2, “Prediction method for lipidosis” (Takeda Pharmaceutical Company Limited, priority 2003, dated 2008).
Read-outs that look alike come from different tables or passages of the source. Marks after values point to notes of the source that are not given here.

Key:
Crj: CD(SD)IGS rats [1] = test: Urinary PAG/hippuric acid ratio by 1H NMR in rats; details: rat urine, 3 days, mean n = 3-4
Method: During the urine pooling, the collecting vessels were kept in an ice-cooled condition. After the urine collection, the urine was centrifuged at 1500×g for 10 minutes, and not less than 1 mL of the supernatant was collected and stored under freezing (below −70° C.) in a microtube in an ultralow-temperature freezer until the measurement. For the negative control group, 24-hour pooled urine was collected under ice cooling; after the urine collection, the urine was stored at −30° C. until the measurement.
Crj: CD(SD)IGS rats [2] = details: rat, gavage once daily for 3 days; printed on the line of the lowest dose, dose group unclear
Method: Each test drug was administered by gavage at a dosing liquid volume of 10 mL/kg/day once daily for 3 days (4 days for the negative control). The animals were examined for mortality, general conditions, body weight, food consumption and the like using PM4800 (Mettler) and EB3200D (Shimadzu Corporation).
Crj: CD(SD)IGS rats [3] = details: rat, in vivo
Method: (§1) The following 10 kinds of commercially available drugs were examined as the test compounds for a potential of inducing PLsis by histopathological examination and peripheral blood lymphocyte testing.
(§2) The following experiments were performed using the prematurely autopsied animals.
(§3) The high-dose dosing suspension was diluted about 3 fold and 10 fold with dispersant/solvent to prepare intermediate- and low-dose dosing suspensions. […] [For LD50, the Summary Basis of Approval (FDA) for each drug was referenced to.]
(§4) The animals were examined for mortality, general conditions, body weight, food consumption and the like using PM4800 (Mettler) and EB3200D (Shimadzu Corporation).

Crj: CD(SD)IGS rats [4] = details: male, rat, in vivo, 3 days
Method: as §1, §2, §3, §4
Hematological examination was performed for parameters such as RBC count, hematocrit, hemoglobin concentration, mean corpuscular hemoglobin (MCH), mean corpuscular hemoglobin concentration (MCHC), mean corpuscular volume (MCV), platelet count, WBC count, reticulocyte count, differential WBC, and vacuolated lymphocyte ratio (for PLsis-inducing compounds only) using ADVIA120 (Bayer Medical Ltd.) and E-4000 (Sysmex Corporation).

[5] = in vivo; cited from earlier work

CN(C)CCCN1c2ccccc2CCc2ccc(Cl)cc21 [Clomipramine, clomipramine]
PAG + hippuric acid/creatinine (Crj: CD(SD)IGS rats [1]; 100 mg/kg/day by gavage): 1.42 | PAG/PAG + hippuric acid (Crj: CD(SD)IGS rats [1]; 100 mg/kg/day by gavage): 14.27% | PAG/creatinine (first term of PAG + hippuric acid) (Crj: CD(SD)IGS rats [1]; 100 mg/kg/day by gavage): 0.20 | PAG/hippuric acid (Crj: CD(SD)IGS rats [1]; 100 mg/kg/day by gavage): 16.79% | hippuric acid/creatinine (second term of PAG + hippuric acid) (Crj: CD(SD)IGS rats [1]; 100 mg/kg/day by gavage): 1.22 | PAG + hippuric acid/creatinine (Crj: CD(SD)IGS rats [1]; 300 mg/kg/day by gavage): 0.74* | PAG/PAG + hippuric acid (Crj: CD(SD)IGS rats [1]; 300 mg/kg/day by gavage): 33.36* % | PAG/creatinine (first term of PAG + hippuric acid) (Crj: CD(SD)IGS rats [1]; 300 mg/kg/day by gavage): 0.20 | PAG/hippuric acid (Crj: CD(SD)IGS rats [1]; 300 mg/kg/day by gavage): 62.72* % | hippuric acid/creatinine (second term of PAG + hippuric acid) (Crj: CD(SD)IGS rats [1]; 300 mg/kg/day by gavage): 0.52 | death (note beside the dose) (Crj: CD(SD)IGS rats [2]): (death) | Histopathological changes (PLsis): Liver (Crj: CD(SD)IGS rats [3]; 100 mg/kg/day): − | Histopathological changes (PLsis): Lung (Crj: CD(SD)IGS rats [3]; 100 mg/kg/day): − | Histopathological changes (PLsis): Lymph node (Crj: CD(SD)IGS rats [3]; 100 mg/kg/day): − | Histopathological changes (PLsis): Others (Crj: CD(SD)IGS rats [3]; 100 mg/kg/day): − | Histopathological changes (PLsis): Spleen (Crj: CD(SD)IGS rats [3]; 100 mg/kg/day): − | Histopathological changes (PLsis): Liver (Crj: CD(SD)IGS rats [3]; 300 mg/kg/day): − | Histopathological changes (PLsis): Lung (Crj: CD(SD)IGS rats [3]; 300 mg/kg/day): + | Histopathological changes (PLsis): Lymph node (Crj: CD(SD)IGS rats [3]; 300 mg/kg/day): + | Histopathological changes (PLsis): Others (Crj: CD(SD)IGS rats [3]; 300 mg/kg/day): − | Histopathological changes (PLsis): Spleen (Crj: CD(SD)IGS rats [3]; 300 mg/kg/day): − | Histopathological changes (PLsis): Liver (Crj: CD(SD)IGS rats [3]; 1000 mg/kg/day): + | Histopathological changes (PLsis): Lung (Crj: CD(SD)IGS rats [3]; 1000 mg/kg/day): − | Histopathological changes (PLsis): Lymph node (Crj: CD(SD)IGS rats [3]; 1000 mg/kg/day): + | Histopathological changes (PLsis): Others (Crj: CD(SD)IGS rats [3]; 1000 mg/kg/day): Kidney | Histopathological changes (PLsis): Spleen (Crj: CD(SD)IGS rats [3]; 1000 mg/kg/day): − | Mean vacuolated lymphocyte ratio (Crj: CD(SD)IGS rats [4]; 100 mg/kg/day): 2% | Mean vacuolated lymphocyte ratio (Crj: CD(SD)IGS rats [4]; 300 mg/kg/day): 30% | Mean vacuolated lymphocyte ratio (Crj: CD(SD)IGS rats [4]; 1000 mg/kg/day): 38% | LD50 [5]: 914 mg/kg
